Measured values as given in PubChem BioAssay AID1963977 (Molecular Pharmacology Branch, DTP, NCI, 2024).

Test system: 624824-186-R-J3-PDC multicell spheroids, viability
Assay: Anticancer human tumor 624824-186-R-J3-PDC patient-derived colon adenocarcinoma cell line growth inhibition [PI3K]
Details: for IC50: curve of first compound; for viability, T/C: stronger effect = lower value
Text: Combinatorial screen of targeted agents with the PI3K inhibitors inavolisib, alpelisib, duvelisib, and copanlisib in multi-cell type tumor spheroids
A high-throughput screen of multi-cell type tumor spheroids was designed to identify active combinations of targeted small molecules and PI3K pathway inhibitors. Complex spheroids include a stromal component modeled by human endothelial cells (HUVEC) and fibroblasts modeled by human mesenchymal stem cells (MSCs). The concentration ranges selected for each drug and investigational agent were based upon clinically achievable concentrations if the clinical Cmax of the agent was known.
Compounds. The drugs and investigational agents: inavolisib (NSC800729), alpelisib (NSC765974), duvelisib (NSC772469), copanlisib (NSC816437), ipatasertib (NSC767898), afuresertib (NSC778305), talazoparib (NSC767125), sapanisertib (NSC764658), selumetinib (NSC741078), tovorafenib (DAY101, NSC766906), vemurafenib (NSC761431), ravoxertinib (NSC781343), sotorasib (NSC818433), MRTX1133 (NSC 836407), abemaciclib (NSC 768073), palbociclib (NSC758247), venetoclax (NSC 766270), SY5609 (NSC837396), enzalutamide (NSC755605), and darolutamide (NSC825331), were obtained from the National Cancer Institute (NCI) Developmental Therapeutics Program Chemical Repository. The FDA-approved anticancer drug set is available from the NCI Developmental Therapeutics Program. […] The stock solutions were prepared in dimethyl sulfoxide (DMSO, Sigma-Aldrich, St. Louis, MO, cat. D2650) at 800-fold the tested concentration and stored at -70 degrees C prior to their use. All drugs and investigational agents were tested over a range starting from a high concentration at or near the clinical Cmax and decreasing in half-log increments. If the clinical Cmax for an agent had not been determined, the highest concentration tested was 10 microM.
Cell Culture. All cells were maintained in an incubator at 37 degrees C and 5% CO2 with 95% humidity. The PDC lines were cultured according to standard operating procedures established by the NCI PDMR (https://pdmr.cancer.gov/sops/default.htm). All PDCs were thawed and cultured in Matrigel-coated flasks prepared with a working solution of 1X Ham's F-12 nutrient mix, without supplementation (Invitrogen, Waltham, MA, cat. 11765054), 100 U/mL penicillin-streptomycin (Invitrogen, cat. 15140122), and 2.5% Matrigel (Corning Inc., Corning, NY, cat. 354248) for the first three passages. The 354836-022-R-J1-PDC, 475296-252-R-J1-PDC, and 997726-040-R-J2-PDC lines were cultured in 6A media, which includes advanced DMEM/F-12 (Thermo Fisher Scientific, cat. 12634028), 10 mM HEPES (Thermo Fisher Scientific, cat. 15630080), 1X GlutaMAX supplement (Thermo Fisher Scientific, cat. 35050061), 0.1 mg/mL primocin (InvivoGen, San Diego, CA, cat. ant-pm-2), 10% defined fetal bovine serum, heat inactivated (HyClone Laboratories Inc., Logan, UT, cat. SH30070.03HI), 50% L-WRN conditioned media (ATCC, cat. CRL-3276), 1.25 mM N-Acetyl-L-cysteine (Sigma-Aldrich, cat. A9165), 10 mM nicotinamide (Sigma-Aldrich, cat. N0636), 1X B-27 supplement (Thermo Fisher Scientific, cat. 17504044), 1X N-2 supplement (Thermo Fisher Scientific, cat. 17502048), and 10 microM Y-27632 dihydrochloride (Tocris Bioscience, Bristol, United Kingdom, cat. 1254). The 624824-186-R-J2-PDC line was cultured in 6C/Colon 1B media, which includes all 6A media components plus 50 ng/mL human EGF recombinant protein (Thermo Fisher Scientific, cat. PHG0311). […]
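Also: spheroids exposed to agents for seven days before luminescence read.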
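For viability, T/C in this document: luminescent signal used as a stand-in for spheroid viability; percent viability relative to DMSO vehicle control wells taken as 100%.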

Cn1nccc1Nc1nccc(-c2ccn(C(CO)c3ccc(Cl)c(F)c3)c(=O)c2)n1 (configuration not stated) + CC(Nc1ccc2c(c1)OCCn1cc(N3C(=O)OCC3C(F)F)nc1-2)C(N)=O
IC50 (second compound 0.00316 µM): 8240 nM
IC50 (second compound 0.01 µM): 4070 nM
IC50 (second compound 0.0316 µM): 2580 nM
IC50 (second compound 0.1 µM): 1270 nM
IC50 (second compound 0.316 µM): 628 nM
IC50 (second compound 1 µM): 341 nM
viability, T/C (second compound 0.00316 µM, first compound 0.0316 µM): 104%
viability, T/C (second compound 0.00316 µM, first compound 0.1 µM): 91.1%
viability, T/C (second compound 0.00316 µM, first compound 0.316 µM): 85%
viability, T/C (second compound 0.00316 µM, first compound 1 µM): 75.9%
viability, T/C (second compound 0.00316 µM, first compound 3.16 µM): 58.8%
viability, T/C (second compound 0.00316 µM, first compound 10 µM): 48.1%
viability, T/C (second compound 0.01 µM, first compound 0.0316 µM): 93.9%
viability, T/C (second compound 0.01 µM, first compound 0.1 µM): 93%
viability, T/C (second compound 0.01 µM, first compound 0.316 µM): 90%
viability, T/C (second compound 0.01 µM, first compound 1 µM): 65.4%
viability, T/C (second compound 0.01 µM, first compound 3.16 µM): 54.9%
viability, T/C (second compound 0.01 µM, first compound 10 µM): 43.9%
viability, T/C (second compound 0.0316 µM, first compound 0.0316 µM): 97.5%
viability, T/C (second compound 0.0316 µM, first compound 0.1 µM): 107%
viability, T/C (second compound 0.0316 µM, first compound 0.316 µM): 80.7%
viability, T/C (second compound 0.0316 µM, first compound 1 µM): 68.2%
viability, T/C (second compound 0.0316 µM, first compound 3.16 µM): 46.2%
viability, T/C (second compound 0.0316 µM, first compound 10 µM): 37.2%
viability, T/C (second compound 0.1 µM, first compound 0.0316 µM): 102%
viability, T/C (second compound 0.1 µM, first compound 0.1 µM): 95%
viability, T/C (second compound 0.1 µM, first compound 0.316 µM): 80.6%
viability, T/C (second compound 0.1 µM, first compound 1 µM): 52.2%
viability, T/C (second compound 0.1 µM, first compound 3.16 µM): 36.4%
viability, T/C (second compound 0.1 µM, first compound 10 µM): 24.8%
viability, T/C (second compound 0.316 µM, first compound 0.0316 µM): 105%
viability, T/C (second compound 0.316 µM, first compound 0.1 µM): 95%
viability, T/C (second compound 0.316 µM, first compound 0.316 µM): 76.6%
viability, T/C (second compound 0.316 µM, first compound 1 µM): 31.7%
viability, T/C (second compound 0.316 µM, first compound 3.16 µM): 20.2%
viability, T/C (second compound 0.316 µM, first compound 10 µM): 17.4%
viability, T/C (second compound 1 µM, first compound 0.0316 µM): 84.1%
viability, T/C (second compound 1 µM, first compound 0.1 µM): 81.1%
viability, T/C (second compound 1 µM, first compound 0.316 µM): 51.9%
viability, T/C (second compound 1 µM, first compound 1 µM): 20.5%
viability, T/C (second compound 1 µM, first compound 3.16 µM): 15.1%
viability, T/C (second compound 1 µM, first compound 10 µM): 15.3%
